According to PubChem BioAssay (NCI):
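Five concentrations, 48 hours, 96-well plates. GI50 is the concentration that inhibits growth by half. TGI is the concentration that stops growth completely.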

Tests used:
Experiment in all cases: inhibition of tumour cell growth, NCI panel, 48 h
PC-3 prostate = test system: PC-3 prostate
CCRF-CEM leukemia = test system: CCRF-CEM leukemia
KM12 colon = test system: KM12 colon
U251 CNS = test system: U251 CNS
SF-539 CNS = test system: SF-539 CNS
NCI-H23 lung = test system: NCI-H23 lung
NCI-H460 lung = test system: NCI-H460 lung
HOP-92 NSCLC = test system: HOP-92 NSCLC
M14 melanoma = test system: M14 melanoma
UACC-62 melanoma = test system: UACC-62 melanoma
MDA-MB-435 = test system: MDA-MB-435
HCC-2998 colon = test system: HCC-2998 colon
UACC-257 melanoma = test system: UACC-257 melanoma
HS 578T breast = test system: HS 578T breast
NCI-H522 lung = test system: NCI-H522 lung
OVCAR-3 ovarian = test system: OVCAR-3 ovarian
DU-145 prostate = test system: DU-145 prostate
HT29 colon = test system: HT29 colon
HCT-15 colon = test system: HCT-15 colon
MDA-MB-231 breast = test system: MDA-MB-231 breast
OVCAR-4 ovarian = test system: OVCAR-4 ovarian
NCI-H226 lung = test system: NCI-H226 lung
SK-MEL-2 melanoma = test system: SK-MEL-2 melanoma
RPMI-8226 leukemia = test system: RPMI-8226 leukemia
HCT-116 colon = test system: HCT-116 colon
ACHN renal = test system: ACHN renal
K-562 leukemia = test system: K-562 leukemia
T-47D breast = test system: T-47D breast
UO-31 renal = test system: UO-31 renal
CAKI-1 renal = test system: CAKI-1 renal
SN12C renal = test system: SN12C renal
786-0 renal = test system: 786-0 renal
RXF 393 renal = test system: RXF 393 renal
EKVX NSCLC = test system: EKVX NSCLC
SF-295 CNS = test system: SF-295 CNS
NCI/ADR-RES ovarian = test system: NCI/ADR-RES ovarian
A498 renal = test system: A498 renal
A549 NSCLC = test system: A549 NSCLC
MOLT-4 leukemia = test system: MOLT-4 leukemia
IGROV1 ovarian = test system: IGROV1 ovarian
SK-OV-3 ovarian = test system: SK-OV-3 ovarian
SK-MEL-28 melanoma = test system: SK-MEL-28 melanoma
SNB-75 CNS = test system: SNB-75 CNS
HOP-62 NSCLC = test system: HOP-62 NSCLC
MCF7 breast = test system: MCF7 breast
BT-549 breast = test system: BT-549 breast
HL-60(TB) leukemia = test system: HL-60(TB) leukemia
SF-268 CNS = test system: SF-268 CNS
SNB-19 CNS = test system: SNB-19 CNS
SW-620 colon = test system: SW-620 colon
SK-MEL-5 melanoma = test system: SK-MEL-5 melanoma
TK-10 renal = test system: TK-10 renal
COLO 205 colon = test system: COLO 205 colon
OVCAR-5 ovarian = test system: OVCAR-5 ovarian
OVCAR-8 ovarian = test system: OVCAR-8 ovarian
MALME-3M melanoma = test system: MALME-3M melanoma
LOX IMVI melanoma = test system: LOX IMVI melanoma
SR leukemia = test system: SR leukemia

N#Cc1c(-c2ccc(Cl)cc2)[nH]c(=O)n(C2OC(CO)C(O)C(O)C2O)c1=O (configuration not stated)
TGI (PC-3 prostate): > 100 µM
TGI (CCRF-CEM leukemia): > 100 µM
TGI (KM12 colon): > 100 µM
TGI (U251 CNS): > 100 µM
TGI (SF-539 CNS): > 100 µM
TGI (NCI-H23 lung): > 100 µM
TGI (NCI-H460 lung): > 100 µM
TGI (HOP-92 NSCLC): > 100 µM
TGI (M14 melanoma): > 100 µM
TGI (UACC-62 melanoma): > 100 µM
TGI (MDA-MB-435): > 100 µM
TGI (HCC-2998 colon): > 100 µM
TGI (UACC-257 melanoma): > 100 µM
TGI (HS 578T breast): > 100 µM
TGI (NCI-H522 lung): > 100 µM
TGI (OVCAR-3 ovarian): > 100 µM
TGI (DU-145 prostate): > 100 µM
TGI (HT29 colon): > 100 µM
TGI (HCT-15 colon): > 100 µM
TGI (MDA-MB-231 breast): > 100 µM
TGI (OVCAR-4 ovarian): > 100 µM
TGI (NCI-H226 lung): > 100 µM
TGI (SK-MEL-2 melanoma): > 100 µM
TGI (RPMI-8226 leukemia): > 100 µM
TGI (HCT-116 colon): > 100 µM
TGI (ACHN renal): > 100 µM
TGI (K-562 leukemia): > 100 µM
TGI (T-47D breast): > 100 µM
TGI (UO-31 renal): > 100 µM
TGI (CAKI-1 renal): > 100 µM
TGI (SN12C renal): > 100 µM
TGI (786-0 renal): > 100 µM
TGI (RXF 393 renal): > 100 µM
TGI (EKVX NSCLC): > 100 µM
TGI (SF-295 CNS): > 100 µM
TGI (NCI/ADR-RES ovarian): > 100 µM
TGI (A498 renal): > 100 µM
TGI (A549 NSCLC): > 100 µM
TGI (MOLT-4 leukemia): > 100 µM
TGI (IGROV1 ovarian): > 100 µM
TGI (SK-OV-3 ovarian): > 100 µM
TGI (SK-MEL-28 melanoma): > 100 µM
TGI (SNB-75 CNS): > 100 µM
TGI (HOP-62 NSCLC): > 100 µM
TGI (MCF7 breast): > 100 µM
TGI (BT-549 breast): > 100 µM
TGI (HL-60(TB) leukemia): > 100 µM
TGI (SF-268 CNS): > 100 µM
TGI (SNB-19 CNS): > 100 µM
TGI (SW-620 colon): > 100 µM
TGI (SK-MEL-5 melanoma): > 100 µM
TGI (TK-10 renal): > 100 µM
TGI (COLO 205 colon): > 100 µM
TGI (OVCAR-5 ovarian): > 100 µM
TGI (OVCAR-8 ovarian): > 100 µM

C=C1CCC2C3(C)COC(c4ccccc4)OC3CCC2(C)C1/C=C/C1=CCOC1=O (configuration not stated)
GI50 (MALME-3M melanoma): 15.6 µM
TGI (MALME-3M melanoma): 32.6 µM
GI50 (PC-3 prostate): 4.75 µM
TGI (PC-3 prostate): 51.3 µM
GI50 (CCRF-CEM leukemia): 1.89 µM
TGI (CCRF-CEM leukemia): 5.65 µM
GI50 (KM12 colon): 2.91 µM
TGI (KM12 colon): 11.4 µM
GI50 (U251 CNS): 2.87 µM
TGI (U251 CNS): 12.3 µM
GI50 (SF-539 CNS): 8.71 µM
TGI (SF-539 CNS): 21.2 µM
GI50 (NCI-H23 lung): 9.68 µM
TGI (NCI-H23 lung): 24.2 µM
GI50 (NCI-H460 lung): 9.29 µM
TGI (NCI-H460 lung): 35.9 µM
GI50 (M14 melanoma): 6.4 µM
TGI (M14 melanoma): 36.7 µM
GI50 (UACC-62 melanoma): 6.82 µM
TGI (UACC-62 melanoma): 22.9 µM
GI50 (MDA-MB-435): 2.84 µM
TGI (MDA-MB-435): 13.8 µM
GI50 (HCC-2998 colon): 7.75 µM
TGI (HCC-2998 colon): 19.4 µM
GI50 (UACC-257 melanoma): 63.4 µM
TGI (UACC-257 melanoma): > 100 µM
GI50 (HS 578T breast): 1.86 µM
TGI (HS 578T breast): 8.61 µM
GI50 (NCI-H522 lung): 3.65 µM
TGI (NCI-H522 lung): 14.9 µM
GI50 (OVCAR-3 ovarian): 2.79 µM
TGI (OVCAR-3 ovarian): 8.84 µM
GI50 (DU-145 prostate): 3.77 µM
TGI (DU-145 prostate): 12.8 µM
GI50 (HT29 colon): 3.23 µM
TGI (HT29 colon): 10.7 µM
GI50 (HCT-15 colon): 2.41 µM
TGI (HCT-15 colon): 11.5 µM
GI50 (MDA-MB-231 breast): 12.5 µM
TGI (MDA-MB-231 breast): 43 µM
GI50 (OVCAR-4 ovarian): 3.63 µM
TGI (OVCAR-4 ovarian): 16.3 µM
GI50 (NCI-H226 lung): 3.81 µM
TGI (NCI-H226 lung): 13.5 µM
GI50 (SK-MEL-2 melanoma): 4.81 µM
TGI (SK-MEL-2 melanoma): 15.9 µM
GI50 (RPMI-8226 leukemia): 1.69 µM
TGI (RPMI-8226 leukemia): 5.69 µM
GI50 (LOX IMVI melanoma): 1.7 µM
TGI (LOX IMVI melanoma): 4.25 µM
GI50 (HCT-116 colon): 1.95 µM
TGI (HCT-116 colon): 5.64 µM
GI50 (ACHN renal): 8.74 µM
TGI (ACHN renal): 22 µM
GI50 (K-562 leukemia): 2.31 µM
TGI (K-562 leukemia): > 100 µM
GI50 (T-47D breast): 19.9 µM
TGI (T-47D breast): 69.4 µM
GI50 (UO-31 renal): 4.88 µM
TGI (UO-31 renal): 18.2 µM
GI50 (SN12C renal): 3.82 µM
TGI (SN12C renal): 15.9 µM
GI50 (786-0 renal): 13 µM
TGI (786-0 renal): 30 µM
GI50 (RXF 393 renal): 2.93 µM
TGI (RXF 393 renal): 8.65 µM
GI50 (EKVX NSCLC): 13.7 µM
TGI (EKVX NSCLC): > 100 µM
GI50 (SF-295 CNS): 14.1 µM
TGI (SF-295 CNS): 51.9 µM
GI50 (NCI/ADR-RES ovarian): 3.17 µM
TGI (NCI/ADR-RES ovarian): > 100 µM
GI50 (A498 renal): 17.9 µM
TGI (A498 renal): 46 µM
GI50 (A549 NSCLC): 6.87 µM
TGI (A549 NSCLC): 48.1 µM
GI50 (MOLT-4 leukemia): 2.55 µM
TGI (MOLT-4 leukemia): 15.1 µM
GI50 (IGROV1 ovarian): 3.4 µM
TGI (IGROV1 ovarian): 11.9 µM
GI50 (SK-OV-3 ovarian): 11.5 µM
TGI (SK-OV-3 ovarian): > 100 µM
GI50 (SK-MEL-28 melanoma): 9.15 µM
TGI (SK-MEL-28 melanoma): 26.6 µM
GI50 (SNB-75 CNS): 2.64 µM
TGI (SNB-75 CNS): 10.1 µM
GI50 (HOP-62 NSCLC): 22.9 µM
TGI (HOP-62 NSCLC): 46.7 µM
GI50 (MCF7 breast): 1.96 µM
TGI (MCF7 breast): 7.59 µM
GI50 (BT-549 breast): 6.29 µM
TGI (BT-549 breast): 20.8 µM
GI50 (HL-60(TB) leukemia): 1.27 µM
TGI (HL-60(TB) leukemia): 3.91 µM
GI50 (SF-268 CNS): 5.22 µM
TGI (SF-268 CNS): 22.5 µM
GI50 (SNB-19 CNS): 35.8 µM
TGI (SNB-19 CNS): > 100 µM
GI50 (SW-620 colon): 2.96 µM
TGI (SW-620 colon): 10 µM
GI50 (SK-MEL-5 melanoma): 8.67 µM
TGI (SK-MEL-5 melanoma): 21.6 µM
GI50 (TK-10 renal): 12.3 µM
TGI (TK-10 renal): 34 µM
GI50 (SR leukemia): 1.27 µM
TGI (SR leukemia): 4.06 µM
GI50 (COLO 205 colon): 4.09 µM
TGI (COLO 205 colon): 16.8 µM
GI50 (OVCAR-5 ovarian): 9.58 µM
TGI (OVCAR-5 ovarian): 22 µM
GI50 (OVCAR-8 ovarian): 4.11 µM
TGI (OVCAR-8 ovarian): > 100 µM
